Consider 70 molecules from PMC7822874, “Chemoprotective antimalarials identified through quantitative high-throughput screening of Plasmodium blood and liver stage parasites” (Scientific Reports, 2021).

Each structure is given as a SMILES string.

In the first assay the test system is Plasmodium falciparum Dd2 asexual blood stage parasites. The assay is described as follows: microbe, parasite or virus in culture. On the set-up: species or system Plasmodium falciparum Dd2 in human erythrocytes; single determination (one 11-point concentration-response curve). Particulars: Plasmodium falciparum, DD2, Erythrocyte, 72 h.
As a reminder, the AC50 is the concentration giving half of the maximal activity seen. Regarding `CCCCCCSc1ccc([C@@H]2[C@H]3C(=O)N(CC)C(=O)[C@H]3[C@]3(C(=O)OC)CCCCN23)cc1OC` [MLS001362153-01], the AC50 was 15 µM.

The assay is the same for the next values; noted with them: Plasmodium falciparum, DD2, Erythrocyte, 72 h; read-out: AC50.
For the molecule `O=C(Nc1nc2ccccc2n1Cc1ccccc1)c1ccc(COc2ccccc2[N+](=O)[O-])o1` [MLS000543610-01], the AC50 was found to be 16.8 µM. Still for that read-out and setting: as for `Cc1ccc(C)c(-n2c(-c3ccc(Br)cc3)csc2=NC(=O)c2ccccc2F)c1` [MLS000766129-01], the figure is 4.73 µM; as for `COc1ccc(-c2noc(-c3cccn3CC(=O)Nc3ccc(C)cc3C)n2)cc1F` [NCGC00445492-01], 10.6 µM. Turning to `Cc1ccc(CN2CCCC(Cc3ncc(C)n3Cc3ccccc3)C2)o1` (stereo not shown) [NCGC00469705-01], the AC50 came to 9.44 µM. On the same count and under the same terms, the value for `CCOC(=O)c1sc(NC(=O)C(C)Sc2nc(-c3ccccc3)cc(C(F)(F)F)n2)c(C(=O)OC)c1C` (stereo not shown) [NCGC00101272-01] was 2.37 µM; that for `CCN(CC)c1ccc2oc(=O)c(C)nc2c1` [MLS000062529-01] was 6.68 µM; that for `N#Cc1cccc(C(=O)N2CCCN(Cc3ccncc3)C(c3ccccc3)CC(=O)NCC2)c1` (stereo not shown) [NCGC00467150-01] was 7.5 µM. As to `Cc1cccc(Oc2nc(-c3ccncc3)nc3ccccc23)c1` [MLS000769517-01], the AC50 is 7.5 µM. The same measure, in the same setting: as for `COc1ccc(-c2cc(C(=O)NCc3c(C)cc(C)[nH]c3=O)c3c(c2)N(C)CCO3)cn1` [NCGC00417013-01], the figure is 19.3 µM; as for `O=C(Cn1c(=O)n(Cc2ccc(C(=O)NCc3ccc4c(c3)OCO4)cc2)c(=O)c2ccccc21)Nc1cccc(Cl)c1` [NCGC00106483-01], 5.96 µM; as for `COc1ccc(-c2c3c(nc4sc(C(=O)Nc5ccc(Cl)cc5)c(N)c24)CC(C)(C)CC3=O)cc1` [NCGC00100738-01], 0.376 µM. Still for that read-out and setting: the value for `COc1cccc(CN2CCCN(Cc3ccncc3)C(c3ccccc3)CC(=O)NCC2)c1` (stereo not shown) [NCGC00467185-01] was 7.5 µM; that for `COc1cc(NC(=O)Cn2c(=O)n(CC3CCC(C(=O)NCCc4ccccc4)CC3)c(=O)c3ccccc32)cc(OC)c1` (stereo not shown) [NCGC00106543-01] was 5.96 µM; that for `O=C(NCc1ccco1)c1cc(-c2ccncc2)nc2ccccc12` [MLS000046192-01] was 5.96 µM. On the same count and under the same terms, the value for `Cc1ccc2nc(-c3ccc(O)c(O)c3)cn2c1` [MLS001209043-01] was 13.3 µM; that for `CCOc1ccc(/C=C/C(=O)Nc2ccc3nc(N(CC)CC)cc(C)c3c2)cc1OC` [NCGC00104284-01] was 1.88 µM; that for `Oc1ccc(Cl)cc1CNCC1CCCCC1` [MLS002207458-01] was 4.22 µM.

For `CC(C)c1cc(C(=O)Nc2cc(Cl)ccc2O)no1` [MLS000087324-01], the concentration at half-maximal activity (AC50) came out at 6.68 µM. `Cc1cc(CN2CCC(CO)(Cc3ccccc3Cl)CC2)cc(C)c1O` [NCGC00426527-01]: the AC50 was 16.8 µM. Still for that read-out and setting: the value for `O=C(c1ccccc1)N1CCC(Cc2nnc(-c3ccncc3)[nH]2)CC1` [NCGC00458326-01] was 15 µM; that for `Cc1nc2sc(C(=O)Nc3ccc(F)cc3)c(N)c2c(-c2ccc(Br)cc2)c1C(=O)Nc1ccc(Cl)cc1` [NCGC00105115-01] was 8.41 µM.

For the molecule `CC(=O)c1sc2c(c1C)c(=O)n(-c1ccc(Cl)cc1)c(=O)n2Cc1cc(=O)n2cc(Cl)ccc2n1` [NCGC00104860-01], the AC50 was determined as 7.5 µM. Turning to `COc1ccc(-c2ccc3ncc(Nc4cccc(C(F)(F)F)c4)n3n2)cn1` [NCGC00412495-01], the AC50 came out at 12.2 µM. As to `COc1cc2c(cc1OC1CCCC1)NC(=O)C21CCN(C(=O)c2cccc(C#N)c2)CC1` [NCGC00416876-01], the AC50 is 8.41 µM.

As to `O=C1CC(c2ccccc2)N(C(=O)CNC(=O)c2n[nH]c3c2CCc2ccccc2-3)CCCCCCN1` (stereo not shown) [NCGC00467449-01], the AC50 was determined as 2.99 µM. On the same count and under the same terms, as for `Fc1cccc(CN2CCC(N3CC(OCC4CC4)C34CCCCC4)CC2)c1` (stereo not shown) [NCGC00463410-01], the figure is 4.22 µM.

Turning to `CCOC(=O)N1CCN(C(=O)c2ccc3c(c2)N(C)C(=O)/C(=C\c2ccc(OCC)c(OC)c2)S3)CC1` [MLS001030648-01], the AC50 is 6.68 µM.

`CCCCN1C(=O)C(O)(CC(=O)c2ccc(C(C)(C)C)cc2)c2ccccc21` (stereo not shown) [NCGC00100209-01]: the AC50 was determined as 4.73 µM. Still for that read-out and setting: the value for `CC1CCN(C(=O)C[C@@H]2c3nc(NC(=O)c4cccc(F)c4)sc3C[C@@H]3[C@](C)(CO)[C@H](O)CC[C@]32C)CC1` [NCGC00394310-01] was 10.6 µM; that for `COc1cc(C2Nc3ccc4ccccc4c3C3=C2C(=O)CC(C)(C)C3)ccc1OC(C)C(=O)O` (stereo not shown) [MLS001197433-01] was 6.68 µM. With `NCCc1cccc(CN2CCCC(COc3ccccc3F)C2)c1` (stereo not shown) [NCGC00434821-01], the AC50 came to 2.66 µM. The same measure, in the same setting: the value for `COc1ccccc1N1CCN(CCCNC(=O)c2cnn(-c3ccccc3Cl)c2C2CCN(C(=O)OC(C)(C)C)CC2)CC1` [NCGC00126752-01] was 2.37 µM; that for `Cc1ccc(C)c(CN2C(=O)c3ccccc3[S+](=O)([O-])c3ccc(C(=O)NCCc4ccc(Cl)cc4)cc32)c1` [NCGC00109793-01] was 7.5 µM.

Turning to `COC(=O)C1=C(c2ccc(-c3ccccc3)c(F)c2)C[C@@H]2CC[C@H]1N2C(=O)NCc1cccc2ccccc12` [MLS002302696-01], the concentration at half-maximal activity (AC50) was found to be 10.6 µM. For the molecule `O=C(C[n+]1c2n(c3ccccc31)CC(O)CS2)c1ccccc1` (stereo not shown) [MLS000687555-01], the AC50 stood at 10.6 µM. Still for that read-out and setting: as for `O=C1CC(c2ccccc2)N(Cc2ccncc2)CCCN(C(=O)Nc2ccccc2F)CCN1` (stereo not shown) [NCGC00467191-01], the figure is 1.68 µM; as for `COc1ccc(CN2C(=O)COC[C@@H]2[C@H](O)c2ccc(NC(=O)c3ccc(C(C)(C)C)cc3)cc2)cc1` [NCGC00392864-01], 2.11 µM; as for `COc1ccc(N2CCN(C(=O)CSc3nc(-c4ccc(C(C)C)cc4)no3)CC2)cc1` [NCGC00127936-01], 0.531 µM. The same measure, in the same setting: the value for `Cc1nnc(NC(=O)C2c3ccccc3C(=O)N(CC(C)C)C23CCCCC3)s1` (stereo not shown) [NCGC00423223-01] was 15 µM.

With `COc1ccc(C(C)NC(S)=NC2CCCC2)cc1OC` (stereo not shown) [MLS000581238-01], the AC50 was determined as 6.68 µM.

For the molecule `O=[S+]([O-])(c1ccccc1)N1CC(CNc2cccnc2)C2(CN(c3ccccc3)C2)C1` (stereo not shown) [NCGC00415961-01], the AC50 amounted to 21.7 µM. On the same count and under the same terms, the value for `CCOc1ccc(C(C)NC(S)=NC2CCCCC2)cc1OCC` (stereo not shown) [MLS001007596-01] was 0.211 µM; that for `COc1cc(NC(=O)CSc2nc(-c3ccc(C(C)C)cc3)no2)cc(OC)c1` [NCGC00127914-01] was 0.841 µM; that for `O=C1N=C(NC2CCCCC2)C2(CCN(Cc3ccccc3)C2)N1c1cc(F)cc(F)c1` (stereo not shown) [NCGC00374188-01] was 4.22 µM. Consider `CC1Cn2c(nnc2-c2cc3ccccc3cc2O)S1` (stereo not shown) [MLS000066435-01], for which the AC50 stood at 4.73 µM. Turning to `COc1cc2nc(NCc3ccccc3)n3nc(-c4ccccc4)nc3c2cc1OC` [NCGC00112829-01], the AC50 worked out at 0.422 µM. On the same count and under the same terms, as for `CNc1cc(C)nc(-n2nc(C)cc2C)n1` [MLS000079642-01], the figure is 8.41 µM; as for `COc1ccc(Nc2ccccc2NC(=O)c2ccccc2Br)cc1` [MLS001233685-01], 5.96 µM. Still for that read-out and setting: as for `Cc1c(CN2CC(Oc3ccccc3C(=O)NCc3ccccc3)C2)cnn1C` [NCGC00458092-01], the figure is 4.22 µM; as for `CCOC(=O)C1=C(C)NC(=O)CC1c1cc(OC)c(OC)cc1Br` (stereo not shown) [MLS000723492-01], 5.31 µM. Still for that read-out and setting: as for `CN1N=C2c3ccccc3CCC2C1c1ccc(F)cc1` (stereo not shown) [MLS000861852-01], the figure is 5.96 µM.

Consider `COc1ccc(NC(=O)Cc2c[nH]c3ncc(-c4cnn(C)c4)cc23)cn1` [NCGC00412250-01], for which the AC50 worked out at 12.2 µM.

For `Cc1c(Cl)cccc1Nc1nn2c(=O)c3ccc(C(=O)N(C)Cc4ccccc4)cc3nc2s1` [NCGC00125571-01], the AC50 was 16.8 µM. Still for that read-out and setting: the value for `Cn1nc(C2CCCCC2)cc1[C@H]1CN2CC[C@H]1C[C@@H]2CNC(=O)c1cccs1` [NCGC00399662-01] was 13.7 µM.

Turning to `COc1cc2c(cc1OC)C(COc1ccc3c(C)cc(=O)oc3c1)N(C(=O)Cc1ccc(F)cc1)CC2` (stereo not shown) [NCGC00104919-01], the AC50 worked out at 5.96 µM. As for `CCCc1c(C)[nH]c2ccccc2c1=O` [MLS000067721-01], the AC50 is 7.5 µM. The same measure, in the same setting: as for `CC(=O)Oc1ccc2ccccc2c1C(NC(=O)C(C)C)c1cccc([N+](=O)[O-])c1` (stereo not shown) [MLS000526079-01], the figure is 16.8 µM; as for `CCOC(=O)N1CCc2c(sc3c2c(=O)n(CCc2ccccc2)c(=O)n3Cc2c(F)cccc2Cl)C1` [NCGC00111977-01], 2.66 µM. Still for that read-out and setting: as for `COc1cccc(C(=O)N2CCC(N3C[C@H](O)C[C@H]3C(=O)N3CC=C(c4ccccc4)CC3)CC2)c1` [NCGC00460071-01], the figure is 9.44 µM. The same measure, in the same setting: the value for `OCc1cccc(-c2ccc3ncc(Nc4ccc(OCCN5CCCC5)cc4)n3n2)c1` [NCGC00412543-01] was 3.44 µM; that for `COc1cc(O)c(C(CCN2CCCC(C)C2)c2ccc3c(c2)OCO3)c(OC)c1` (stereo not shown) [MLS000879506-01] was 0.531 µM. Take `COCCOc1ccnc(-c2noc([C@@H]3CCCN3Cc3cn(C)c4ccccc34)n2)c1` [NCGC00394869-01]: the half-maximal activity concentration (AC50) was 19.3 µM.

For the molecule `CC(C)c1ccc(C2c3[nH]c4ccccc4c3C[C@H]3C(=O)N(c4ccccc4C(=O)N4CCC(C(=O)O)CC4)C(=O)N23)cc1` (stereo partly shown) [MLS001140664-01], the AC50 is 6.68 µM. Still for that read-out and setting: as for `CCOC(=O)c1c(CN(CC)CC)n(C)c2cc(Br)c(O)cc12` [MLS000778381-01], the figure is 9.44 µM. `Cc1ccc(S(=O)(=O)N2CCN(/C(S)=N/Cc3ccc4c(c3)OCO4)CC2)cc1` [MLS001002637-01]: the AC50 is 2.37 µM. In the case of `O[C@H]1[C@H](NCC2CCCC2)[C@@H](c2ccccc2)C[C@H]1O` [NCGC00395463-01], the AC50 was determined as 6.11 µM. In the case of `COc1ccc(-c2cc3ccc(O)c(CN4CCCC(C)C4)c3oc2=O)cc1` (stereo not shown) [NCGC00134281-01], the AC50 was 2.37 µM.

As to `CC(C)(C)c1ccc(C(=O)N2CCCC(c3nc(O)c4nnn(Cc5cccc(F)c5)c4n3)C2)cc1` (stereo not shown) [NCGC00116087-01], the AC50 worked out at 16.8 µM.

As to `COc1cc2c(cc1OCc1cccnc1)N(C(=O)c1ccc(Oc3ccccc3)cc1)CC21CCN(CC(=O)O)CC1` [NCGC00419910-01], the AC50 was determined as 5.96 µM.
